Measured values taken from patent publication US7098246B2, “Natural compounds and their derivatives for the prevention and treatment of cardiovascular, hepatic and renal diseases and for cosmetic applications” (Puleva Biotech, S.A., priority 2002, dated 2006).

Key:
[1] = Stability against forced oxidation at 120° C. in an oily food matrix (refined oil, Rancimat)
Experimental: This was done by measuring the remaining amount of each of the compounds when these were subjected to forced oxidation at 120° C. Oxidation was done by passing a dry air current (˜20 I/h) through an aliquot of the sample (4 ml) placed in a reactor heated to 120° C. using a Metrohm-Herisau A. G Rancimat apparatus.
The solutions of all the compounds were prepared in refined oil. A total of 5 mg of II were dissolved in 5 g of refined oil, and finally 0.5 g of this solution were dissolved in. 5 g of refined oil. Similarly, solutions III and VIII were prepared in refined oil. Aliquots of 0.3 ml were collected at different times for each solution and were stored at −20° C. […] After introducing the sample, 6 ml of hexane, 6 ml of hexane/ethyl acetate (9:1) and 10 ml of methanol were passed through it, and then the methanolic fraction was concentrated to 1 ml volume. […] Once again, the methanolic phase was concentrated to 1 ml volume for analysis.

[2] = Absorption of hydroxytyrosol and derivatives administered orally in mice (hydroxytyrosol in plasma); details: oral, oily solution, equivalent amounts (10 mg II, 13 mg III, 70 mg IX)
Description: Plasma was isolated from each blood sample by extraction with ethyl acetate and analysed by gas chromatography-mass spectometry.

[3] = Absorption of hydroxytyrosol administered orally in human volunteers; type: in vivo; details: oral
Experimental: Pure hydroxytyrosol was obtained from olive leaves using standard extraction procedures compatible with the consumption of food products.
A 2.5 mg dose of hydroxytyrosol was administered per kg weight to 5 fasting healthy volunteers aged from 22–30 years who had not taken olive oil in their diet for at least two days before the study. Hydroxytyrosol dissolved in water was administered orally and afterwards blood samples were obtained at 0, 10, 20, 30, 60, 120 minutes. The plasma level of hydroxytyrosol and derived metabolites were determined by gas chromatography-mass spectometry using anthracene and napthol as internal standards.

Row | SMILES | remaining amount of compound during forced oxidation ([1]; 120° C., dry air current, after 10 hours, RP-HPLC) [%] | degradation state during forced oxidation ([1]; 120° C., after 10 hours) | stability against oxidation compared with hydroxytyrosol ([1]; forced oxidation at 120° C.) | Hydroxytyrosol in plasma, 15 min. ([2]; 15 min) [mg/L] | Hydroxytyrosol in plasma, 60 min. ([2]; 60 min) [mg/L] | time bioavailable after administration [3] | time of return of hydroxytyrosol plasma level to values similar to initial ones ([3]; 2.5 mg per kg weight in water) [min] | time of maximum plasma level of hydroxytyrosol after administration ([3]; 2.5 mg per kg weight in water, fasting) [min]
1 | CCCCCCCCCCCCCCCCCCOc1ccc(CCO)cc1O [Compound VII, 2-(4-stearyloxy-3-hydroxyphenyl) ethanol] | 50 |  |  |  |  |  |  | 
2 | CC(=O)OCCc1ccc(O)c(O)c1 [III, 2-(3,4-dihydroxyphenyl) ethyl acetate] |  | completely degraded | takes longer to degrade than hydroxytyrosol (II) | 0.68 | 0.06 |  |  | 
3 | OCCc1ccc(O)c(O)c1 [II, 2-(3,4-dihydroxyphenyl) ethanol] |  | completely degraded |  |  |  | at least 30 minutes | 30 | 10
